From ChEMBL document CHEMBL1649478, “Comparison of tigecycline and vancomycin for treatment of experimental foreign-body infection due to methicillin-resistant Staphylococcus aureus” (Antimicrob Agents Chemother, 2009) come the findings set out here.

Molecules are shown by their SMILES. In brackets after ≈: the same amount, converted by molar mass.

Data set [1] concerns Staphylococcus aureus. In words: Antibacterial activity against methicillin-resistant Staphylococcus aureus MRG3 infected in Wistar rat assessed as bacterial load in body fluid at 7 mg/kg, sc BID after 1 day. The format is functional. The settings on record: route subcutaneous.
The nature of data set [2]: Drug level in body fluid of Wistar rat infected with methicillin-resistant Staphylococcus aureus MRG3 at 7 mg/kg, sc BID measured on day 4 postdose. The format is ADME, organism-based. Details: dose 7 mg/kg, route subcutaneous. The settings on record: in vivo.
Data set [3] has as its system Staphylococcus aureus. In words: Antibacterial activity against methicillin-resistant Staphylococcus aureus MRG3 infected in Wistar rat assessed as decrease in bacterial load in body fluid at 7 mg/kg, sc BID after 8 days. The format is functional. The settings on record: route subcutaneous.
The test system of data set [4] is Staphylococcus aureus. In words: Antibacterial activity against methicillin-resistant Staphylococcus aureus MRG3 assessed as log decrease in bacterial count at 1 to 4 ug/ml by broth microdilution method. In kind it is functional. (In general: Broth dilution looks for growth in wells or tubes with falling amounts of substance.)
Data set [5] concerns Staphylococcus aureus. In words: Antibacterial activity against methicillin-resistant Staphylococcus aureus MRG3 by broth microdilution method. In kind it is functional.
For a further data set, the system named is Plasma. In words: Drug level in plasma of Wistar rat infected with methicillin-resistant Staphylococcus aureus MRG3 at 7 mg/kg, sc BID measured on day 4 postdose. The settings on record: in vivo. Also noted: dose 7 mg/kg, route subcutaneous. The format is ADME, organism-based.
Data set [6] is described as follows: Drug level in body fluid of Wistar rat infected with methicillin-resistant Staphylococcus aureus MRG3 at 7 mg/kg, sc BID measured on day 7 postdose. As to conditions: in vivo. The format is ADME, organism-based. Also noted: dose 7 mg/kg, route subcutaneous.
Data set [7] concerns Staphylococcus aureus. In words: Antibacterial activity against methicillin-resistant Staphylococcus aureus MRG3 infected in Wistar rat assessed as bacterial load in body fluid at 50 mg/kg, sc after 1 day. In kind it is functional. The settings on record: route subcutaneous.
Data set [8] concerns Staphylococcus aureus. In words: Bactericidal activity against methicillin-resistant Staphylococcus aureus MRG3 by broth microdilution method.
For data set [9], the system named is Staphylococcus aureus. In words: Antibacterial activity against methicillin-resistant Staphylococcus aureus MRG3 infected in Wistar rat assessed as decrease in bacterial load in body fluid at 50 mg/kg, sc after 8 days. The settings on record: route subcutaneous. The format is functional.
Data set [10] is described as follows: Cmin in body fluid of Wistar rat infected with methicillin-resistant Staphylococcus aureus MRG3 at 50 mg/kg, sc measured on day 4 postdose. The format is ADME, organism-based. Also noted: dose 50 mg/kg, route subcutaneous. The settings on record: in vivo.
Data set [11] can be described thus: Cmax in body fluid of Wistar rat infected with methicillin-resistant Staphylococcus aureus MRG3 at 50 mg/kg, sc measured on day 4 postdose. The format is ADME, organism-based. Details: dose 50 mg/kg, route subcutaneous.

A word on the MIC: it is the least concentration at which growth counts as inhibited. Higher therefore signals a less susceptible organism. Regarding `CN(C)c1cc(NC(=O)CNC(C)(C)C)c(O)c2c1C[C@H]1C[C@H]3[C@H](N(C)C)C(O)=C(C(N)=O)C(=O)[C@@]3(O)C(O)=C1C2=O` [TIGECYCLINE], the results for the log10CFU/ml in the data set on Staphylococcus aureus [1], in the data set with Staphylococcus aureus [3] and in the data set on Staphylococcus aureus [4] were 6.92, 0.62 and 2, respectively. Further, the values for the Drug uptake (in data set [2]; with Plasma; in data set [6]) were 0.39 µg/mL, 1.87 µg/mL and 0.33 µg/mL, respectively. Besides, the minimal inhibitory concentration (MIC) in the data set on Staphylococcus aureus [5] is 0.5 µg/mL (≈ 0.854 µM).

The MBC is the lowest tested concentration that kills the bacteria rather than only halting them. Low values mean greater bactericidal potency, high ones weaker bactericidal potency. What is called Cmax is the peak of the concentration-time curve. Turning to `CN[C@H](CC(C)C)C(=O)N[C@H]1C(=O)N[C@@H](CC(N)=O)C(=O)N[C@H]2C(=O)N[C@H]3C(=O)N[C@H](C(=O)N[C@H](C(=O)O)c4cc(O)cc(O)c4-c4cc3ccc4O)[C@H](O)c3ccc(c(Cl)c3)Oc3cc2cc(c3O[C@@H]2O[C@H](CO)[C@@H](O)[C@H](O)[C@H]2O[C@H]2C[C@](C)(N)[C@H](O)[C@H](C)O2)Oc2ccc(cc2Cl)[C@H]1O` [VANCOMYCIN], the log10CFU/ml with Staphylococcus aureus [7] is on record as 6.7; with Staphylococcus aureus [9] it was 0.76. The compound also had a minimal bactericidal concentration (MBC) against Staphylococcus aureus [8] of 2 µg/mL (≈ 1.38 µM). Besides, the Cmin in [10] was determined as 2000 ng/mL. The compound further yielded a Cmax in [11] of 12000 ng/mL.
